{"source": "patent US9770469B2", "about": "“Methods of reprogramming renal cells” (Tel HaShomer Medical Research Infrastructure and Services …, priority 2009, dated 2017)", "assay_type_in_all_cases": "cell-based", "key": {"[1]": {"test_system": "human fetal kidney cells", "experiment": "Western blot for Six2 and Wt1 after VPA", "conditions": "24 h after VPA exposure", "protocol": "(§1) Cell Treatment: Cells were treated for 24 hours with growth medium supplemented with 1, 2, or 4 mM VPA (Sigma) or with H2O for control sample. Otherwise, cells were treated for 24 hours with growth medium supplemented with the combination of 75 μM TSA (Sigma) and 250 μM 5-AZA (Sigma) or with 100% Ethanol and Acetic Acid (Acetic Acid: H2O 1:1) for control sample. […] 24 hours prior to harvesting VPA at a concentration of 4 mM was added to the cell culture.\n(§2) Western Blot: AK, FK (treated and untreated) and Melanoma cells were harvested with Tripsin/EDTA. Cell extracts were prepared with lysis buffer (50 mM Tris-HCl, 150 mM NaCl, 0.1 mM EDTA, 0.5 mM DTT, 1.5 mM MgCl, 0.5% Triton-X) and their concentrations were detected by BCA protein assay kit (Thermo scientific). 100 μg of total proteins were heated at 95° C. for 5 min with laemmli sample buffer (Bio-rad) and then were loaded on SDS-10% polyacrylamide gel. After electrophoresis, proteins were transferred to nitrocellulose membrane that was blocked with 5% nonfat dry milk overnight at 4° C. The membrane was reacted with the required antibodies, namely Six2 (Affinity Bioreagents), WT1 (Santa Cruz), goat anti-rabbit IgG (Jackson). The membrane was reacted with ECL substrate (Thermo scientific) and was exposed to medical x-ray film (Fuji)."}, "[2]": {"test_system": "human adult kidney cells", "experiment": "Western blot for Six2 and Wt1 after VPA", "conditions": "24 h after VPA exposure", "protocol": "as §1, §2"}, "[3]": {"test_system": "human fetal kidney cells", "experiment": "β-catenin immunofluorescence after VPA", "conditions": "valproic acid 24 hours, vs non-treated cells", "protocol": "(§3) Immunofluorescence Staining: AK, FK (treated and untreated) human epithelial cell line and fibroblast cell line were fixed with acetone at −20° C. for seven minutes and washed with PBS. Cells were blocked with 7% human serum in PBS for 15 minutes followed by incubation with β-catenin antibody (1:150) (Chemicon international) for 60 minutes. Cells were washed and then incubated with secondary antibody with Cy-3 conjugated anti-mouse IgG (1:200) (Jackson) for 30 minutes. For nuclear staining, cells were washed with PBS containing Hochest (Dako). The presence of β-catenin was examined under a Zeiss confocal fluorescence microscope."}, "[4]": {"test_system": "human adult kidney cells", "experiment": "β-catenin immunofluorescence after VPA", "conditions": "valproic acid 24 hours, vs non-treated cells", "protocol": "as §3"}, "[5]": {"test_system": "human fetal kidney cells", "experiment": "qRT-PCR gene expression after TSA/AzaC or VPA treatment", "from_the_text": "Tissue Samples: human tissues samples were collected according to the Helsinki requirements. Human fetal kidney cells (HFK) were collected from elective abortions at fetal gestational age ranged from 15 to 19 weeks. Normal human adult kidney cell (HAK) samples were retrieved from borders of RCC tumors from partial nephrectomy patients. Establishment of Primary Cultures from Human Kidney Tissues: Collected tissues were minced in HBSS, soaked in IMDM Medium (Invitrogen) supplemented with 0.1% collagenase II (Invitrogen). The digested tissue was then gradually forced through a 100 μm, 70 μm and 50 μm cell strainer to achieve a single cell suspension, and cultured in growth medium supplemented with FBS 10%, L-Glutamin 1%, Pen-Strep 1% and growth factors: 50 ng/ml of bFGF, 50 ng/ml of EGF and 5 ng/ml of SCF (R&D systems). Cell Treatment: […] Otherwise, cells were treated for 24 hours with growth medium supplemented with the combination of 75 μM TSA (Sigma) and 250 μM 5-AZA (Sigma) or with 100% Ethanol and Acetic Acid (Acetic Acid: H2O 1:1) for control sample. […] 24 hours prior to harvesting VPA at a concentration of 4 mM was added to the cell culture. Quantitative Reverse Transcription-PCR: Total RNA from kidney tissue cultured cells was isolated using the TRIZOL reagent (Invitrogen) according to the manufacturer's protocols. cDNA synthesis was carried out using Verso kit (Thermo scientific) with Random primers. Quantitative RT PCR was performed using an ABI7900HT sequence detection system (Perkin-Elmer/Applied Biosystems) in the presence of SYBR green (SYBR green PCR kit; Qiagen). Each analysis reaction was performed in duplicates or triplicates. GapDH was used as an endogenous control throughout all experimental analyses. Analysis was performed using the −ΔΔCt method, which determines fold changes in gene expression relative to a comparator sample."}, "[6]": {"conditions": "HFK cells, 24 h, TSA/AzaC or VPA"}, "[7]": {"conditions": "HFK cells, 24 h, TSA/AzaC or VPA (lesser extent than Six2)"}}, "data": [{"smiles": "CCCC(CCC)C(=O)O", "note": "[VPA, valproic acid]", "values": [{"measurement": "Six2 protein levels", "setting": "[1]; 4 mM", "result": "increment"}, {"measurement": "Wt1 protein levels", "setting": "[1]; 2 and 4 mM", "result": "no changes"}, {"measurement": "Six2 protein levels", "setting": "[2]; 4 mM", "result": "increment"}, {"measurement": "Wt1 protein levels", "setting": "[2]; 2 and 4 mM", "result": "no changes"}, {"measurement": "β-catenin immunofluorescence localisation", "setting": "[3]", "result": "cyoplasmic and nuclear accumulation"}, {"measurement": "β-catenin immunofluorescence localisation", "setting": "[4]", "result": "cyoplasmic and nuclear accumulation"}, {"measurement": "Klf4 mRNA increase", "setting": "[5]; HFK cells, 24 h, 4 mM VPA", "result": "two-five"}, {"measurement": "Nanog mRNA increase", "setting": "[5]; HFK cells, 24 h, 4 mM VPA", "result": "two-five"}, {"measurement": "Oct4 mRNA increase", "setting": "[5]; HFK cells, 24 h, 4 mM VPA", "result": "two-five"}, {"measurement": "E-cadherin mRNA expression change", "setting": "[5]; [6]", "result": "significantly elevated"}, {"measurement": "Pax2 mRNA expression change", "setting": "[5]; [6]", "result": "mild elevation"}, {"measurement": "Wt1 mRNA expression change", "setting": "[5]; [6]", "result": "reduction"}, {"measurement": "Osr1 mRNA expression change", "setting": "[5]; [7]", "result": "dose-dependent activation"}, {"measurement": "Sall1 mRNA expression change", "setting": "[5]; [7]", "result": "dose-dependent activation"}, {"measurement": "Six2 mRNA induction", "setting": "[5]; HFK cells, 24 h VPA, dose-dependent", "result": "four-fold"}, {"measurement": "Wnt4 mRNA levels", "setting": "[5]; VPA-treated fetal kidney cells", "result": "strong up-regulation"}, {"measurement": "β-catenin mRNA levels", "setting": "[5]; VPA-treated fetal kidney cells", "result": "elevation"}]}]}
